The values below come from paper PMC8205039, “Synthesis and biological evaluation of 4-phenoxy-phenyl isoxazoles as novel acetyl-CoA carboxylase inhibitors” (Journal of Enzyme Inhibition and Medicinal Chemistry, 2021).

Data set [1] has as its system HepG2 cells. The data set can be described thus: MTT assay, HepG2. The settings on record: Homo sapiens, single concentration of 10 µM (Figure S2), read-out: inhibitory rate, HepG2. The data set is classed as cell-based.
The subject of data set [2] is MDA-MB-231 cells. The data set can be described thus: MTT assay, MDA-MB-231. The data set is classed as cell-based. The settings on record: Homo sapiens, 72 h, mean ± SD (n = 3). How it is done:
(§1) The cytotoxicity of target compounds was assessed by MTT assay. Briefly, cells were seeded in 96-well plates at a density of 2500–3000 per well and incubated for 24 h in a CO2 incubator. Then, the cells were treated with candidate compounds at seven different concentrations for 72 h. At the end of treatment, the MTT reagent (5 mg/mL) was added to determine the cell viability. After 4 h of incubation, the resulting medium was removed, and 100 µL of DMSO was added to dissolve the formed formazan. Finally, the absorbance at 550 nm was measured by a microplate reader (Varioskan LUX, […]), with the IC50 values calculated using GraphPad Prism 5 software (GraphPad Software, La Jolla, CA, USA).

Data set [3] deals with A549 cells. The data set can be described thus: MTT assay, A549. The data set is classed as cell-based. The settings on record: Homo sapiens, single concentration of 10 µM (Figure S2), read-out: inhibitory rate, A549. (Formazan colour is commonly taken as a measure of viable cells.)
Data set [4] concerns MDA-MB-231 cells. In words: MTT assay, MDA-MB-231. Type of data set: cell-based. The conditions noted are these: Homo sapiens, single concentration of 10 µM (Figure S2), read-out: inhibitory rate, MDA-MB-231.
Another data set deals with T1, hACC1 (Homo sapiens, UniProt Q13085).
T1 construct: purchased BPS Biosciences 50200
In words: ACC inhibitory assay (ADP-Glo luminescent ADP detection). Type of data set: biochemical. The conditions noted are these: for inhibition at 0.1 µM: hACC1, 0.1 μM, read-out: IRs (%) 0.1 μM; for inhibition at 0.1 µM / inhibition at 5 µM: mean of two independent experiments (Table 2); for IC50: hACC1, mean ± SD; for hACC1 IRs (%): at 5 μM, HTVS candidates (Table 1); for inhibition at 5 µM: hACC1, 5 μM, read-out: IRs (%) 5 μM. How it is done:
The hACC1 inhibitory activity of target compounds was evaluated using the ADP-Glo^TM kinase assay according to our previous report. In brief, 4.5 µL of working solution containing recombinant ACC1 (BPS Biosciences, 50200) and 0.5 µL of diluted compound solution were added to a 384-well Optiplate plate (Perkin Elmer, 6007290, PerkinElmer, Waltham, MA, USA), and incubated at room temperature for 15 min. Then, 5 µL of substrate mixture was added to the 384-well plate to start the reaction. After incubating for 60 min at room temperature, 10 µL of ADP-Glo reagents were added to the 384-well plate, and incubated for another 40 min to deplete the remaining ATP. Finally, 20 µL of kinase detection reagents were added to the plate and incubated for 40 min to convert ADP to ATP. The luminescent signal of ATP was determined using an Envision multifunction reader (Perkin Elmer, 2104–0010, PerkinElmer, Waltham, MA, USA). The IC50 values were calculated using GraphPad Prism 5 software (GraphPad Software, La Jolla, CA, USA).
A general note: In ADP-Glo the light output rises with the ADP produced.

Data set [5] has as its system intracellular malonyl-CoA levels in MDA-MB-231 cells. In words: Measurement of malonyl-CoA levels (Elisa). The settings on record: maximum test concentration, 48 h. The data set is classed as cell-based, human. How it is done: MDA-MB-231 cells were seeded on 6-well plates and treated with various concentrations of 6g and 6l for 48 h. Cells were collected, washed with PBS, and lysed with 1% Triton X-100. The lysates were centrifuged at 4 °C for 15 min. The malonyl-CoA levels were determined using Elisa assay kits (Ruixin Biotech, Beijing, China).

Data set [6] concerns HepG2 cells. The data set can be described thus: MTT assay, HepG2. Type of data set: cell-based. The conditions noted are these: Homo sapiens, 72 h, mean ± SD (n = 3). The protocol:
as §1

Data set [7] deals with MDA-MB-231 cells. The data set can be described thus: Cell apoptosis assay (Annexin V-FITC/PI flow cytometry). Type of data set: cell-based, human. The conditions noted are these: 48 h. How it is done:
MDA-MB-231 cells were plated on 6-well plates (3 × 10^4 cells/well) and incubated with various concentrations of 6g (0.75, 1.5, and 3 µM) and 6l (0.1, 0.2, and 0.4 µM) for 48 h. Then, cells were harvested by trypsinization and centrifugation, followed by staining with annexin-V-FITC in binding buffer for 15 min protected from light. Subsequently, the cells were stained with PI, and the proportion of apoptotic cells was measured by flow cytometer (Facs Canto II, Becton Dickinson, San Jose, CA, USA)[36].
A general note: Flow cytometry measures light scatter and fluorescence of single cells or particles in a stream.

For data set [8], the system named is MDA-MB-231 cells. The data set can be described thus: Cell-cycle assay (PI flow cytometry). Type of data set: cell-based, human. The conditions noted are these: 48 h. How it is done:
MDA-MB-231 cells were seeded on 6-well plates (3 × 10^4 cells/well) and incubated with indicated concentrations of 6g (0.75, 1.5, and 3 µM) and 6l (0.1, 0.2, and 0.4 µM) for 48 h in a 5% CO2 incubator. Then, the cells were collected by trypsinization and centrifugation, followed by fixing in 70% pre-cooled ethanol overnight. Finally, the cells were stained with PI/RNase A according to the manual and measured by flow cytometer (Facs Canto II, Becton Dickinson, San Jose, CA’, USA)[35].

The subject of a further data set is HUVEC. In words: Cell viability of non-cancerous HUVEC. The data set is classed as cell-based, human. The conditions noted are these: 10 μM. How it is done:
(§2) To investigate the selectivity of the synthesised compounds towards cancer cells, the non-cancerous HUVEC cell line was selected for testing.
as §1

The nature of data set [9]: Cell viability of non-cancerous HUVEC. The data set is classed as cell-based, human. The conditions noted are these: human, HUVEC cells (non-cancerous). The protocol:
as §2, §1

The test system of data set [10] is A549 cells. The data set can be described thus: MTT assay, A549. The data set is classed as cell-based. The conditions noted are these: Homo sapiens, 72 h, mean ± SD (n = 3). How it is done:
as §1

Usually IC50 stands for the midpoint of a concentration-inhibition curve. Higher therefore signals weaker potency. Broadly, the melting point is the temperature of the solid-liquid transition. Broadly, the viability is a read-out of living cells in per cent, often relative to untreated cells.

`CC(=O)NC(C)c1cc(-c2ccc(Oc3ccc(OCC4CC4)cc3)cc2)no1` (centres unmarked) [Compound 6g, N-(1-(3-(4-(4-(Cyclopropylmethoxy)phenoxy)phenyl)isoxazol-5-yl)ethyl)acetamide] had a melting point of 131.5 to 132.5 °C. Further, in the data set with HepG2 cells [1], the inhibition at 10 µM is more than 80%. Further, the IC50 in the data set with MDA-MB-231 cells [2] is 1.5 ± 0.58 µM. Moreover, the inhibition at 10 µM in the data set with A549 cells [3] is more than 80%. Also, in the data set with MDA-MB-231 cells [4], the inhibition at 10 µM is more than 80%. On hACC1, the inhibition at 0.1 µM was 51.4% and the IC50 was 99.8 ± 3.7 nM. The “reduction of intracellular malonyl-CoA levels compared to the control group” value in [5] is recorded as approximately 23.59%. This compound displayed an IC50 in the data set on HepG2 cells [6] of 1.73 ± 0.55 µM. Besides, the “total percentage of the early and late apoptotic cells” value (“total percentage” below) with MDA-MB-231 cells [7] (0.75 μM) was 8.34%. In addition, in the data set with MDA-MB-231 cells [7] (1.5 μM), the “total percentage” value is given as 13.83%. For the same compound, in the data set on MDA-MB-231 cells [7] (3 μM), the “total percentage” value came to 20.25%. In the data set on MDA-MB-231 cells [8] (0.75 μM), the “cells at G0/G1 phase” value turned out to be 69.37%, the “cells at G2/M phase” value is on record as 12.01% and the “cells at S phase” value worked out at 18.62%. Further, in the data set on MDA-MB-231 cells [8] (1.5 μM), the “cells at G0/G1 phase” value was 73.66%, the “cells at G2/M phase” value is given as 10.51% and the “cells at S phase” value stood at 15.83%. Also, in the data set on MDA-MB-231 cells [8] (3 μM), the “cells at G0/G1 phase” value came to 79.97%, the “cells at G2/M phase” value is reported as 9.96% and the “cells at S phase” value was 10.08%. The “IRs towards HUVEC” value in the data set with HUVEC was “less than 20%”. For the same compound, the viability at 72 h, 10 µM in [9] came out at 87.3 ± 6.19%. This compound yielded an IC50 in the data set on A549 cells [10] of 1.1 ± 0.12 µM.
The compound `CC(NC(=O)Cc1ccccc1)c1cc(-c2ccc(Oc3ccccc3)cc2)no1` (centres unmarked) [Compound 6l, N-(1-(3-(4-Phenoxyphenyl)isoxazol-5-yl)ethyl)-2-phenylacetamide] yielded a melting point of 164.5 to 165.5 °C. Also, in the data set with HepG2 cells [1], the inhibition at 10 µM is more than 80%. This compound registered an IC50 in the data set with MDA-MB-231 cells [2] of 0.21 ± 0.01 µM. Also, the inhibition at 10 µM in the data set with A549 cells [3] was more than 80%. In the data set on MDA-MB-231 cells [4], the inhibition at 10 µM was more than 80%. For the same compound, at hACC1, the inhibition at 0.1 µM was found to be 37.9% and the IC50 is 279 ± 13.1 nM. In addition, in [5], the “reduction of intracellular malonyl-CoA levels compared to the control group” value was approximately 25.85%. The compound also showed an IC50 in the data set on HepG2 cells [6] of 0.26 ± 0.02 µM. In addition, in the data set on MDA-MB-231 cells [7] (0.4 μM), the “Q2 (upper right quadrant, late apoptotic cells)” value amounted to 17.50% and the “Q3 (bottom right quadrant, early apoptotic cells)” value is 12.20%. In the data set with MDA-MB-231 cells [8] (0.1 μM), the “cells at G0/G1 phase” value was 71.79%, the “cells at G2/M phase” value is given as 12.01% and the “cells at S phase” value is listed as 16.20%. Moreover, in the data set with MDA-MB-231 cells [8] (0.2 μM), the “cells at G0/G1 phase” value is on record as 76.79%, the “cells at G2/M phase” value is reported as 8.79% and the “cells at S phase” value came out at 14.42%. In addition, in the data set on MDA-MB-231 cells [8] (0.4 μM), the “cells at G0/G1 phase” value came out at 81.93%, the “cells at G2/M phase” value came out at 5.32% and the “cells at S phase” value is recorded as 12.76%. Moreover, the “IRs towards HUVEC” value in the data set with HUVEC was “less than 20%”. Besides, the viability at 72 h, 10 µM in data set [9] came to 89.5 ± 3.21%. In addition, inhibition with A549 cells [10] was half-maximal at 0.22 ± 0.07 µM (IC50).
As for `CC(=O)NC(C)c1cc(-c2ccc(Oc3ccc(OCc4ccccc4)cc3)cc2)no1` (centres unmarked) [Compound 6a, N-(1-(3-(4-(4-(Benzyloxy)phenoxy)phenyl)isoxazol-5-yl)ethyl)acetamide], the melting point lay within 152.5 to 153.5 °C. In addition, in the data set with HepG2 cells [1], the inhibition at 10 µM is more than 80%. The same compound displayed an IC50 in the data set on MDA-MB-231 cells [2] of 1.57 ± 0.09 µM. Also, in the data set with A549 cells [3], the inhibition at 10 µM was more than 80%. Further, the inhibition at 10 µM in the data set with MDA-MB-231 cells [4] is more than 80%. Also, on hACC1, the “hACC1 IRs (%)” value is 57%, the inhibition at 0.1 µM is 18.1% and the inhibition at 5 µM turned out to be 54.9%. Besides, the “hACC1 IRs (%)” value on hACC1 (listed as D098-1432 (6a)) amounted to 57.39%. The compound also displayed an IC50 with HepG2 cells [6] of 1.91 ± 0.66 µM. Moreover, the viability at 72 h, 10 µM in [9] is 45.8 ± 1.16%. For the same compound, the IC50 with A549 cells [10] was determined as 1.4 ± 0.22 µM.
For `CCCOc1ccc(Oc2ccc(-c3cc(C(C)NC(C)=O)on3)cc2)cc1` (centres unmarked) [Compound 6e, N-(1-(3-(4-(4-Propoxyphenoxy)phenyl)isoxazol-5-yl)ethyl)acetamide], the melting point is 118.5 to 119.5 °C. This compound also had an IC50 in the data set on MDA-MB-231 cells [2] of 1.53 ± 0.38 µM. On hACC1, the inhibition at 0.1 µM worked out at 31.1%, the inhibition at 5 µM is more than 60% and inhibition was half-maximal at 438 ± 16.3 nM (IC50). The compound further showed an IC50 with HepG2 cells [6] of 3.48 ± 0.74 µM. Further, the “IRs towards HUVEC” value in the data set on HUVEC is listed as “less than 20%”. This compound also gave a viability at 72 h, 10 µM in data set [9] of 83.7 ± 4.4%. In the data set on A549 cells [10], this compound gave an IC50 of 2.66 ± 0.47 µM.
